{"source": "patent US10093699B2", "about": "“Peptides with antimicrobial, anticancer and/or wound-healing promoting activities, pharmaceutical compositions containing the same, and use of the peptides with antimicrobial, anticancer and/or wound-healing promoting activities” (priority 2015, dated 2018)", "key": {"[1]": {"test_system": "Gram-positive and Gram-negative bacterium", "test": "Antimicrobial activity under several salt concentrations (summary in words)", "format": "cell-based", "method": "Escherichia coli strain (ATCC 25922), Staphylococcus aureus subsp strain (ATCC 25923, methicillin-resistant), and Pseudomonas aeruginosa Migula strain (ATCC 27853, ampicillin-resistant) were used to test the antibacterial activity of the peptides. Bacteria were cultured in sterilized Mueller-Hinton (MH) culturing medium at 200 rpm and 37° C. for 8 hours.\nThe antibacterial activities were determined by the standard broth microdilution method of National Committee for Clinical Laboratory Standards with the LYM broth. The LYM broth contains 5.4 mM KCl, 5.6 mM Na2HPO4, 0.5 mM MgSO4, and 1.0 mM sodium citrate. In addition, 0.4 mg of ZnCl2, 2.0 mg of FeCl3. 6H2O, 0.1 mg of CuSO4. 5H2O, 0.1 mg of MnSO4.H2O, 0.1 mg of Na2B4O7.10H2O, 700 mg of amino acid mixtures without tryptophan (Clontech), and 20 mg of L-Tryptophan were added per liter of medium. A vitamin mixture (100×, Sigma) and glucose at final concentration of 2% were also added.\n1 μl peptide solutions (ranging from 5000 μg/ml to 78 μg/ml in serial dilution) was prepared and mixed with 99 μl inoculum (5×10^5 CFU/ml) in polypropylene 96-well plate. The turbidity at OD 600 nm was measured by ELISA plate reader (Thermo Max, Molecular Devices, Sunnyvale, Calif.). The absorbance of culture medium and inoculum suspension without peptides were used as the negative and positive control, respectively. […]"}, "[2]": {"test_system": "caspase 3 in HFW cells", "test": "Western blot for activated caspase 3, HFW", "format": "cell-based, human"}, "[3]": {"test_system": "HaCaT cells", "test": "Cell migration assay (in vitro wound healing assay)", "format": "cell-based", "conditions": "different concentrations of peptide; 12 and 24 h", "method": "HaCaT cells (40,000) suspended in DMEM medium supplemented with 10% fetal bovine serum were seeded on each side of an ibidi culture insert (ibidi, Germany). Inserts were placed into 24-well plate. After incubated at 37° C. and 5% CO2 overnight, inserts were removed and 1 ml of serum-free DMEM medium supplemented with different concentrations of peptide was added. Medium without peptide and with 100 ng/ml EGF (epidermal growth factor) were negative and positive controls. At 0, 12 and 24 h, the images of injury area were observed using the Inverted Fluorescent Microscope Zeiss/Observer.Z1 (10×). Wound area was estimated by Adobe Photoshop. The repairing rate was calculated: repairing rate=(areat0−areat12,24)/areat0, wherein t represents time."}}, "note": "Where a SMILES comes first, the peptide text is derived from it. [ ]: non-standard residue; d: D form. 2Nal = N[C@@H](Cc1ccc2ccccc2c1)C(=O)O", "data": [{"smiles": "CC(=O)N[C@@H](CCCCN)C(=O)N[C@@H](CCCCN)C(=O)N[C@@H](CCCCN)C(=O)N[C@@H](CCCCN)C(=O)N[C@@H](CCCNC(=N)N)C(=O)N[C@@H](CCCNC(=N)N)C(=O)N[C@@H](Cc1ccc2ccccc2c1)C(=O)N[C@@H](Cc1ccc2ccccc2c1)C(=O)N[C@@H](CCCCN)C(=O)N[C@@H](CCCCN)C(=O)N[C@@H](Cc1c[nH]c2ccccc12)C(=O)N[C@@H](CCCNC(=N)N)C(=O)N[C@@H](CCCCN)C(=O)N[C@@H](Cc1c[nH]c2ccccc12)C(=O)N[C@@H](CC(C)C)C(=O)N[C@@H](C)C(=O)N[C@@H](CCCCN)C(=O)N[C@@H](CCCCN)C(N)=O", "note": "[K4R2-Nal2-S1, Ac-KKKKRR-Nal-Nal-KKWRKWLAKK-NH2] (Ac-KKKKRR[2Nal][2Nal]KKWRKWLAKK-NH2)", "values": [{"measurement": "effectiveness against bacterium", "setting": "[1]; LYM broth condition", "value": "very effective"}, {"measurement": "antimicrobial activities in high-salt conditions", "setting": "[1]; addition of 100 or 200 mM NaCl", "value": "promising activities"}, {"measurement": "caspase 3 activation (immunoblotting)", "setting": "[2]", "value": "not in HFW cells"}, {"measurement": "wound healing (repairing rate) compared to negative control", "setting": "[3]", "value": "better effects of wound healing"}]}]}
